Data reported in paper PMC9360078, “Pre-clinical 2D and 3D toxicity response to a panel of nanomaterials; comparative assessment of NBM-induced liver toxicity” (Drug Delivery and Translational Research, 2022).

Key:
[1] = test system: HepG2 cells (2D monocultures); assay: NBM exposure, LDH cytotoxicity assay, 2D monocultures; type: cell-based, Human; conditions: 125 µM, 24 h
Method: Stock NBM suspensions were vortexed and appropriate dilutions made in cell culture medium. For NBM exposures, briefly, cell culture medium was removed from the wells of culture plates and wells washed with pre-warmed PBS. For adenosine 5′-triphosphate (ATP) quantification and lactate dehydrogenase (LDH) assay, 100 µl of each NBM concentration diluted in culture medium was added to each well for three incubation/exposure timepoints, 24, 48 and 72 h.
The LDH assay is a cytotoxicity assay which is used to assess the level of plasma membrane damage in a cell population. […] LDH release in the supernatants (an indirect measure of cytotoxicity responses) was assessed using the Thermo Scientific Pierce LDH Cytotoxicity Assay Kit (Fisher Scientific, Ireland), following the manufacturers’ protocols. […] Absorbance values at wavelengths (λ) equal to 490 and 680 nm were read using an Epoch microplate reader (Biotek, Mason Technologies, Ireland). The LDH activity was calculated using Eq. (1), whereas the percentage (%) cytotoxicity was extrapolated from Eq. (2).1 LDHactivity=Absorbanceλ=490nm-Absorbanceλ=680nm 2 Cytotoxicity%=LDHactivityTreatedculture-LDHactivityNT/LDHactivityPT-LDHactivityNT […]

[2] = test system: HepG2 spheroids; assay: Sensitivity to hepatotoxins, CellTiter-Glo ATP viability, 3D spheroids; type: cell-based; conditions: Homo sapiens, 4-day repeat dosing (day 3 and day 5), readout day 7, estimated from graphs
Method: (§1) For 2D monolayers, 10,000 HepG2 cells were seeded on 96-well plates (Thermo Fisher, Ireland). Cells were left to adhere for 24 h before being treated with chosen NBMs for desired timepoints. For HepG2 spheroid formation, cells were seeded in CellStar® 96 well ultra-low attachment (ULA) cell-repellent plates (Grenier, BioOne, UK) at a density of 1000 cells per well in 100 µl medium (Fig. 1). After 3 days of incubation at 37 °C with 5% CO2, medium was changed with care taken not to disturb the spheroids.
(§2) Sensitivity of spheroid cultures to a panel of common hepatotoxins was tested using a protocol detailed previously in works from Gaskell et al. and Bell et al. and using information listed in the MIP-DILI training set. The hepatotoxins included acetaminophen, diclofenac, trovafloxacin and fialuridine. HepG2 spheroids grown for 3 days and 10 days were exposed to the hepatotoxins, diluted in cell culture medium, for 4 days, with an addition dose administered 2 days after the first exposure. Concentrations tested for each compound were the following: • Acetaminophen: 10000, 5000, 1250, 625, 300, 150, 75 µg/ml • Diclofenac: 400, 200, 100, 50, 25, 12.5, 6.25 µg/ml • Trovafloxacin: 500, 200, 100, 50, 25, 12.5, 6.25 µg/ml • Fialuridine: 200, 100, 50, 25, 12.5, 6.25, 3.15 µg/ml
(§3) Viability of the treated cultures was determined using the CellTiter-Glo® assay (Thermo Fisher, Ireland) as per the manufacturer’s protocol. Culture medium alone with CellTiter-Glo® reagent was used as a blank control and subtracted from all sample values. Cell viability was calculated as a percentage of untreated vehicle control samples. A dose-dependent response curve was plotted, and estimations were made about what concentration of drug would cause a 50% reduction in cell viability (IC50 value). Experiments were run in triplicate (n = 3).
(§4) Spheroids and HepG2 monolayers were treated with varying concentrations of four common hepatotoxic compounds, namely acetaminophen, diclofenac, fialuridine and trovafloxacin. Following a protocol detailed in Gaskell et al., a 4-day repeat-dosing regimen was used to expose 3D spheroids, i.e. spheroids were cultured for 3 days before being treated with hepatotoxic compounds for 2 days, before doing is repeated again on day 5. Spheroids then remained in culture untouched until ATP quantification assay was undertaken on day 7. […] Each of the four chosen compounds was more toxic in 3D spheroids than in 2D monocultures, although differences were not statistically significant. The concentration causing a 50% reduction in cell viability (IC50) was estimated for each drug tested from the graphs, and is reported in Table 7. A comparison to data extracted from the scientific literature is also reported.

[3] = test system: HepG2 2D monolayer; assay: Sensitivity to hepatotoxins, CellTiter-Glo ATP viability, 2D monolayer; type: cell-based; conditions: Homo sapiens, 24-h acute dosing, estimated from graphs
Method: as §1, §2, §3, §4

Row | Compound | Maximal cell death [1] | IC50 [2] | IC50 [3]
1 | CC(C)[C@@H]1NC(=O)[C@H](C)OC(=O)[C@@H](C(C)C)NC(=O)[C@@H](C(C)C)OC(=O)[C@H](C(C)C)NC(=O)[C@H](C)OC(=O)[C@@H](C(C)C)NC(=O)[C@@H](C(C)C)OC(=O)[C@H](C(C)C)NC(=O)[C@H](C)OC(=O)[C@@H](C(C)C)NC(=O)[C@@H](C(C)C)OC1=O [valinomycin] | < 50% | – | –
2 | N[C@@H]1[C@H]2CN(c3nc4c(cc3F)c(=O)c(C(=O)O)cn4-c3ccc(F)cc3F)C[C@@H]12 [Trovafloxacin, trovafloxacin] | – | > 100 µM | > 400 µM
3 | O=C(O)Cc1ccccc1Nc1c(Cl)cccc1Cl [Diclofenac, diclofenac] | – | > 250 µM | > 400 µM
4 | CC(=O)Nc1ccc(O)cc1 [Acetaminophen, acetaminophen] | – | > 8000 µM | > 10000 µM
5 | O=c1[nH]c(=O)n([C@@H]2O[C@H](CO)[C@@H](O)[C@@H]2F)cc1I [Fialuridine, fialuridine] | – | > 200 µM | > 200 µM
